Experiments:
[1] = target: NS3/NS4 complexes (Hepatitis C virus genotype 1a, UniProt P27958); assay: NS3/NS4 inhibition assay (IC50); format: biochemical; details: NS3/NS4 activity; 23° C., 25 μM NS4A peptide
Outline: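 Read-outs are IC50 for inhibition of the NS3/NS4 complex and EC50 in an HCV replicon system. Biochemical runs use 23° C. and a 50 mM Tris-HCl (pH 7.5) buffer with 15% glycerol, 10 mM DTT, 0.6 mM LDAO and 25 μM NS4A peptide.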

[2] = tested on: hepatitis C replicon; assay: hepatitis C replicon EC50 assay; format: cell-based; details: Hepatitis C virus; hepatitis C replicon; read-out: EC50
Outline: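 First, NS3 and NS4 are complexed; test compounds are then titrated against the complex at room temperature (23° C.) in Tris-HCl buffer, pH 7.5, supplemented with glycerol (15%), LDAO (0.6 mM), DTT (10 mM) and NS4A peptide (25 μM) to give IC50. Separately, replicon cells give EC50.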

NS3/NS4 complexes, sequence (P27958 1027-1657, one chain of several): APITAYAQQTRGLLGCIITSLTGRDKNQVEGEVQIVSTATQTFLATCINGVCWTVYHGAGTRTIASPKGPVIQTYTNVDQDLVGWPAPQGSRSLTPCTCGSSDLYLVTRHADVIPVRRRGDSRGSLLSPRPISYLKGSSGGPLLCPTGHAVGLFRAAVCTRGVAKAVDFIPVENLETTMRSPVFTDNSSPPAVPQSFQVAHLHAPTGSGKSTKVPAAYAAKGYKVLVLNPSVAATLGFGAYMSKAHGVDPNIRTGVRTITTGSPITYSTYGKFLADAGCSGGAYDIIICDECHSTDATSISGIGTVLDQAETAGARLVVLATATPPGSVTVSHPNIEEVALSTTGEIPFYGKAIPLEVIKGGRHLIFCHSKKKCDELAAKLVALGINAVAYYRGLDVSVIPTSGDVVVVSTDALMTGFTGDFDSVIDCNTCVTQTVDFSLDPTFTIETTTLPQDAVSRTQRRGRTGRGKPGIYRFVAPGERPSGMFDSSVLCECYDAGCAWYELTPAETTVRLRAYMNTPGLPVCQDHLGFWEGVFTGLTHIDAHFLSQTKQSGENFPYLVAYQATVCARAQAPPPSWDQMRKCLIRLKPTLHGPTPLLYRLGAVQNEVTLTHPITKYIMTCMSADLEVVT

Compound | IC50 [1] [nM] | EC50 [2] [nM]
Cc1ccc(-c2csc(-c3cccc4c3nc(O[C@@H]3C[C@H]5C(=O)N[C@]6(C(=O)NS(=O)(=O)C7(C)CC7)C[C@H]6/C=C\CCCCC[C@H](NC(=O)OC(C)(C)C)C(=O)N5C3)n4C(C)C)n2)c(C)c1 [Compound 1717] | < 10 | 10 to 100
Cc1cccc(Cc2csc(-c3cccc4c3nc(O[C@@H]3C[C@H]5C(=O)N[C@]6(C(=O)NS(=O)(=O)C7(C)CC7)C[C@H]6/C=C\CCCCC[C@H](NC(=O)OC(C)(C)C)C(=O)N5C3)n4C(C)C)n2)c1 [Compound 1718] | < 10 | < 10
Cc1ccc(Cc2csc(-c3cccc4c3nc(O[C@@H]3C[C@H]5C(=O)N[C@]6(C(=O)NS(=O)(=O)C7(C)CC7)C[C@H]6/C=C\CCCCC[C@H](NC(=O)OC(C)(C)C)C(=O)N5C3)n4C(C)C)n2)cc1 [Compound 1719] | < 10 | < 10
CC(C)n1c(O[C@@H]2C[C@H]3C(=O)N[C@]4(C(=O)NS(=O)(=O)C5(C)CC5)C[C@H]4/C=C\CCCCC[C@H](NC(=O)OC(C)(C)C)C(=O)N3C2)nc2c(-c3nc(Cc4ccccc4F)cs3)cccc21 [Compound 1720] | < 10 | < 10
CC(C)n1c(O[C@@H]2C[C@H]3C(=O)N[C@]4(C(=O)NS(=O)(=O)C5(C)CC5)C[C@H]4/C=C\CCCCC[C@H](NC(=O)OC(C)(C)C)C(=O)N3C2)nc2c(-c3nc(Cc4ccc(F)c(F)c4)cs3)cccc21 [Compound 1721] | < 10 | < 10
CC(C)n1c(O[C@@H]2C[C@H]3C(=O)N[C@]4(C(=O)NS(=O)(=O)C5(C)CC5)C[C@H]4/C=C\CCCCC[C@H](NC(=O)OC(C)(C)C)C(=O)N3C2)nc2c(-c3nc(Cc4cc(F)cc(F)c4)cs3)cccc21 [Compound 1722] | < 10 | 10 to 100
COc1ccc(Cc2csc(-c3cccc4c3nc(O[C@@H]3C[C@H]5C(=O)N[C@]6(C(=O)NS(=O)(=O)C7(C)CC7)C[C@H]6/C=C\CCCCC[C@H](NC(=O)OC(C)(C)C)C(=O)N5C3)n4C(C)C)n2)cc1OC [Compound 1723] | < 10 | < 10
CC(C)n1c(O[C@@H]2C[C@H]3C(=O)N[C@]4(C(=O)NS(=O)(=O)C5(C)CC5)C[C@H]4/C=C\CCCCC[C@H](NC(=O)OC(C)(C)C)C(=O)N3C2)nc2c(-c3nc(Cc4cccc(Cl)c4)cs3)cccc21 [Compound 1724] | < 10 | 10 to 100
CC(C)n1c(O[C@@H]2C[C@H]3C(=O)N[C@]4(C(=O)NS(=O)(=O)C5(C)CC5)C[C@H]4/C=C\CCCCC[C@H](NC(=O)OC(C)(C)C)C(=O)N3C2)nc2c(-c3nc(Cc4cccc(F)c4)cs3)cccc21 [Compound 1725] | < 10 | < 10
CC(C)n1c(O[C@@H]2C[C@H]3C(=O)N[C@]4(C(=O)NS(=O)(=O)C5(C)CC5)C[C@H]4/C=C\CCCCC[C@H](NC(=O)OC(C)(C)C)C(=O)N3C2)nc2c(-c3nc(Cc4ccc(F)cc4)cs3)cccc21 [Compound 1726] | < 10 | < 10
CC(C)n1c(O[C@@H]2C[C@H]3C(=O)N[C@]4(C(=O)NS(=O)(=O)C5(C)CC5)C[C@H]4/C=C\CCCCC[C@H](NC(=O)OC(C)(C)C)C(=O)N3C2)nc2c(-c3nc(Cc4ccccc4Cl)cs3)cccc21 [Compound 1727] | < 10 | < 10
CC(C)n1c(O[C@@H]2C[C@H]3C(=O)N[C@]4(C(=O)NS(=O)(=O)C5(C)CC5)C[C@H]4/C=C\CCCCC[C@H](Nc4ccc(F)cc4)C(=O)N3C2)nc2c(-c3nc(C4CCCC4)cs3)cccc21 [Compound 1728] | < 10 | > 100
CC(C)n1c(O[C@@H]2C[C@H]3C(=O)N[C@]4(C(=O)NS(=O)(=O)C5(C)CC5)C[C@H]4/C=C\CCCCC[C@H](Nc4cccc(F)c4)C(=O)N3C2)nc2c(-c3nc(C4CCCC4)cs3)cccc21 [Compound 1729] | < 10 | 10 to 100
CC(C)n1c(O[C@@H]2C[C@H]3C(=O)N[C@]4(C(=O)NS(=O)(=O)C5(C)CC5)C[C@H]4/C=C\CCCCC[C@H](NC(=O)OC4CCCC4)C(=O)N3C2)nc2c(-c3nc(-c4ccccc4)cs3)cccc21 [Compound 1730] | < 10 | < 10
CC(C)n1c(O[C@@H]2C[C@H]3C(=O)N[C@]4(C(=O)NS(=O)(=O)C5(C)CC5)C[C@H]4/C=C\CCCCC[C@H](NC(=O)O[C@@H]4C[C@@H]5C[C@@H]5C4)C(=O)N3C2)nc2c(-c3nc(-c4ccccc4)cs3)cccc21 [Compound 1731] | < 10 | < 10
CC(C)n1c(O[C@@H]2C[C@H]3C(=O)N[C@]4(C(=O)NS(=O)(=O)C5(C)CC5)C[C@H]4/C=C\CCCCC[C@H](NC(=O)N4CCCC4)C(=O)N3C2)nc2c(-c3nc(-c4ccccc4)cs3)cccc21 [Compound 1732] | < 10 | < 10
COc1ccc2c(O[C@@H]3C[C@H]4C(=O)N[C@]5(C(=O)NS(=O)(=O)C6(C)CC6)C[C@H]5/C=C\CCCCC[C@H](NC(=O)N5CCCC5)C(=O)N4C3)cc(-c3nc(C(C)C)cs3)nc2c1C [Compound 1733] | < 10 | < 10

Compound | IC50 [1] [nM] | EC50 [2] [nM]
CC(C)n1c(O[C@@H]2C[C@H]3C(=O)N[C@]4(C(=O)NS(=O)(=O)N(C)C)C[C@H]4/C=C\CCCCC[C@H](NC(=O)OC(C)(C)C)C(=O)N3C2)nc2c(-c3nc(-c4ccccn4)cs3)cccc21 [Compound 1735] | < 10 | < 10
CC(C)n1c(O[C@@H]2C[C@H]3C(=O)N[C@]4(C(=O)NS(=O)(=O)N(C)C)C[C@H]4/C=C\CCCCC[C@H](NC(=O)OC(C)(C)C)C(=O)N3C2)nc2c(-c3nc(-c4cccnc4)cs3)cccc21 [Compound 1736] | < 10 | < 10
CC(C)n1c(O[C@@H]2C[C@H]3C(=O)N[C@]4(C(=O)NS(=O)(=O)N(C)C)C[C@H]4/C=C\CCCCC[C@H](NC(=O)OC(C)(C)C)C(=O)N3C2)nc2c(-c3nc(-c4ccncc4)cs3)cccc21 [Compound 1737] | < 10 | < 10
COc1ccc(-c2cccc3c2nc(O[C@@H]2C[C@H]4C(=O)N[C@]5(C(=O)NS(=O)(=O)N(C)C)C[C@H]5/C=C\CCCCC[C@H](NC(=O)OC(C)(C)C)C(=O)N4C2)n3C(C)C)cn1 [Compound 1739] | < 10 | 10 to 100
CC(C)n1c(O[C@@H]2C[C@H]3C(=O)N[C@]4(C(=O)NS(=O)(=O)N(C)C)C[C@H]4/C=C\CCCCC[C@H](NC(=O)OC(C)(C)C)C(=O)N3C2)nc2c(-c3csc(-c4ccccc4)n3)cccc21 [Compound 1740] | < 10 | 10 to 100
CC(C)n1c(O[C@@H]2C[C@H]3C(=O)N[C@]4(C(=O)NS(=O)(=O)N(C)C)C[C@H]4/C=C\CCCCC[C@H](NC(=O)OC(C)(C)C)C(=O)N3C2)nc2c(-c3csc(N4CCOCC4)n3)cccc21 [Compound 1741] | < 10 | < 10
CC(C)n1c(O[C@@H]2C[C@H]3C(=O)N[C@]4(C(=O)NS(=O)(=O)N(C)C)C[C@H]4/C=C\CCCCC[C@H](NC(=O)OC(C)(C)C)C(=O)N3C2)nc2c(-c3csc(N4CCCCC4)n3)cccc21 [Compound 1742] | < 10 | 10 to 100
CC(C)n1c(O[C@@H]2C[C@H]3C(=O)N[C@]4(C(=O)NS(=O)(=O)N(C)C)C[C@H]4/C=C\CCCCC[C@H](NC(=O)OC(C)(C)C)C(=O)N3C2)nc2c(-c3csc(C(C)(C)C)n3)cccc21 [Compound 1743] | < 10 | 10 to 100
CC(C)n1c(O[C@@H]2C[C@H]3C(=O)N[C@]4(C(=O)NS(=O)(=O)N(C)C)C[C@H]4/C=C\CCCCC[C@H](NC(=O)OC(C)(C)C)C(=O)N3C2)nc2c(-c3cnc(N4CCOCC4)cn3)cccc21 [Compound 1744] | < 10 | < 10
CC(C)n1c(O[C@@H]2C[C@H]3C(=O)N[C@]4(C(=O)NS(=O)(=O)N5CCC5)C[C@H]4/C=C\CCCCC[C@H](NC(=O)OC(C)(C)C)C(=O)N3C2)nc2c(-c3nc(C4CCCC4)cs3)cccc21 [Compound 1745] | < 10 | 10 to 100
Cc1ccc(-c2csc(-c3cccc4c3nc(O[C@@H]3C[C@H]5C(=O)N[C@]6(C(=O)NS(=O)(=O)N(C)C)C[C@H]6/C=C\CCCCC[C@H](NC(=O)OC(C)(C)C)C(=O)N5C3)n4C(C)C)n2)cc1 [Compound 1746] | < 10 | 10 to 100
CC(C)n1c(O[C@@H]2C[C@H]3C(=O)N[C@]4(C(=O)NS(=O)(=O)N(C)C)C[C@H]4/C=C\CCCCC[C@H](NC(=O)OC(C)(C)C)C(=O)N3C2)nc2c(-c3nc(-c4ccccc4F)cs3)cccc21 [Compound 1747] | < 10 | 10 to 100
Cc1ccccc1-c1csc(-c2cccc3c2nc(O[C@@H]2C[C@H]4C(=O)N[C@]5(C(=O)NS(=O)(=O)N(C)C)C[C@H]5/C=C\CCCCC[C@H](NC(=O)OC(C)(C)C)C(=O)N4C2)n3C(C)C)n1 [Compound 1748] | < 10 | 10 to 100
CC(C)n1c(O[C@@H]2C[C@H]3C(=O)N[C@]4(C(=O)NS(=O)(=O)N(C)C)C[C@H]4/C=C\CCCCC[C@H](NC(=O)OC(C)(C)C)C(=O)N3C2)nc2c(-c3nc(-c4ccccc4Cl)cs3)cccc21 [Compound 1749] | < 10 | 10 to 100
Cc1cccc(-c2csc(-c3cccc4c3nc(O[C@@H]3C[C@H]5C(=O)N[C@]6(C(=O)NS(=O)(=O)N(C)C)C[C@H]6/C=C\CCCCC[C@H](NC(=O)OC(C)(C)C)C(=O)N5C3)n4C(C)C)n2)c1 [Compound 1750] | < 10 | 10 to 100
CC(C)n1c(O[C@@H]2C[C@H]3C(=O)N[C@]4(C(=O)NS(=O)(=O)N(C)C)C[C@H]4/C=C\CCCCC[C@H](NC(=O)OC(C)(C)C)C(=O)N3C2)nc2c(-c3nc(-c4ccc(Cl)cc4)cs3)cccc21 [Compound 1751] | < 10 | 10 to 100
COc1ccc(-c2csc(-c3cccc4c3nc(O[C@@H]3C[C@H]5C(=O)N[C@]6(C(=O)NS(=O)(=O)N(C)C)C[C@H]6/C=C\CCCCC[C@H](NC(=O)OC(C)(C)C)C(=O)N5C3)n4C(C)C)n2)cc1 [Compound 1752] | < 10 | 10 to 100

Source: patent publication US20110081315A1, “NOVEL MACROCYCLIC INHIBITORS OF HEPATITIS C VIRUS REPLICATION” (INTERMUNE, INC., priority 2009, published 2011)
